Values joined by “and” are separate entries in the source; they are usually repeats but may differ in a detail not shown here. Equal values may be shown once. Inconclusive results and toxic doses are left out.
System: CD2F1 mice, L1210 leukemia ip, survival T/C
Test: NCI In Vivo Anticancer Drug Screen. Data for tumor model L1210 Leukemia (intraperitoneal) in CD2F1 (CDF1) mice
Settings: higher = longer survival
In short: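 In this screen, transplantable tumors were grown in mice given either the compound or its vehicle. Results were expressed as the treated measurement relative to the control measurement.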

[1] = endpoint: mean survival time, dose: 100.0 mg/kg/injection, schedule: Q04DX003 (ip), vehicle: saline with Tween-80
[2] = endpoint: mean survival time, dose: 200.0 mg/kg/injection, schedule: Q04DX003 (ip), vehicle: saline with Tween-80
[3] = endpoint: mean survival time, dose: 400.0 mg/kg/injection, schedule: Q04DX003 (ip), vehicle: saline with Tween-80
[4] = endpoint: mean survival time, dose: 100.0 mg/kg/injection, schedule: Q01DX009 (ip), vehicle: saline with Tween-80
[5] = endpoint: mean survival time, dose: 200.0 mg/kg/injection, schedule: Q01DX009 (ip), vehicle: saline with Tween-80
[6] = endpoint: mean survival time, dose: 400.0 mg/kg/injection, schedule: Q01DX009 (ip), vehicle: saline with Tween-80

**Q.** Which T/C (endpoint: median survival time, dose: 0.37 mg/kg/injection, schedule: Q01DX009 (ip), vehicle: suspension in saline) does the source give for `C(=N/NC1=NCCN1)/c1c2ccccc2c(/C=N\NC2=NCCN2)c2ccccc12` here?
**A.** 152 % of control

**Q.** And the T/C (endpoint: median survival time, dose: 1.56 mg/kg/injection, schedule: Q01DX009 (ip), vehicle: saline)?
**A.** 170 % of control

**Q.** What about the T/C (endpoint: median survival time, dose: 3.0 mg/kg/injection, schedule: Q01DX009 (ip), vehicle: suspension in saline) of the same molecule?
**A.** 172 % of control

**Q.** What about the T/C (endpoint: median survival time, dose: 3.12 mg/kg/injection, schedule: Q01DX009 (ip), vehicle: saline) of the same molecule?
**A.** 370 % of control

**Q.** What about the T/C (endpoint: median survival time, dose: 6.25 mg/kg/injection, schedule: Q01DX009 (ip), vehicle: saline) of the same molecule?
**A.** 172 % of control

**Q.** What about the T/C (endpoint: median survival time, dose: 12.5 mg/kg/injection, schedule: Q01DX009 (ip), vehicle: saline) of the same molecule?
**A.** 164 % of control and 180 % of control

**Q.** What about the T/C (endpoint: median survival time, dose: 25.0 mg/kg/injection, schedule: Q01DX009 (ip), vehicle: saline) of the same molecule?
**A.** 176 % of control

**Q.** And the T/C (endpoint: median survival time, dose: 48.0 mg/kg/injection, schedule: Q01DX009 (ip), vehicle: suspension in saline)?
**A.** 113 % of control

**Q.** How did the T/C (endpoint: median survival time, dose: 0.75 mg/kg/injection, schedule: Q01DX001 (ip), vehicle: water) turn out when `CO[C@@]12[C@@H]3N[C@@H]3CN1C1=C(C(=O)C(NCCN)=C(C)C1=O)[C@@H]2COC(N)=O` was run?
**A.** 123 % of control and 110 % of control

**Q.** What about the T/C (endpoint: median survival time, dose: 1.5 mg/kg/injection, schedule: Q01DX001 (ip), vehicle: water) of the same molecule?
**A.** 111 % of control

**Q.** What about the T/C (endpoint: median survival time, dose: 6.0 mg/kg/injection, schedule: Q01DX001 (ip), vehicle: water) of the same molecule?
**A.** 94 % of control

**Q.** For `CC1CC[N+](C)(CC(=O)c2ccc(-c3ccc(C(=O)C[N+]4(C)CCC(C)CC4)cc3)cc2)CC1` (configuration not stated), which T/C (endpoint: mean survival time, dose: 0.02 mg/kg/injection, schedule: Q04DX003 (ip), vehicle: Klucel (hydroxypropylcellulose) (HPC)) is on record?
**A.** 96 % of control

**Q.** What about the T/C (endpoint: mean survival time, dose: 0.04 mg/kg/injection, schedule: Q04DX003 (ip), vehicle: Klucel (hydroxypropylcellulose) (HPC)) of the same molecule?
**A.** 98 % of control

**Q.** What about the T/C (endpoint: mean survival time, dose: 0.08 mg/kg/injection, schedule: Q04DX003 (ip), vehicle: Klucel (hydroxypropylcellulose) (HPC)) of the same molecule?
**A.** 87 % of control and 95 % of control

**Q.** With `CO[Si](c1ccccc1)(c1ccccc1)c1ccc(Br)cc1` as the molecule, how does the T/C [1] read?
**A.** 96 % of control

**Q.** What about the T/C [2] of the same molecule?
**A.** 98 % of control

**Q.** And the T/C [3]?
**A.** 102 % of control

**Q.** With `CCN(CC)C(=O)SCCSC(=O)N(CC)CC` as the molecule, how does the T/C (endpoint: mean survival time, dose: 25.0 mg/kg/injection, schedule: Q04DX002 (ip), vehicle: saline with Tween-80) read?
**A.** 96 % of control

**Q.** And the T/C (endpoint: mean survival time, dose: 50.0 mg/kg/injection, schedule: Q04DX002 (ip), vehicle: saline with Tween-80)?
**A.** 104 % of control

**Q.** What about the T/C (endpoint: mean survival time, dose: 100.0 mg/kg/injection, schedule: Q04DX002 (ip), vehicle: saline with Tween-80) of the same molecule?
**A.** 101 % of control

**Q.** And the T/C (endpoint: mean survival time, dose: 200.0 mg/kg/injection, schedule: Q04DX002 (ip), vehicle: saline with Tween-80)?
**A.** 91 % of control

**Q.** What about the T/C (endpoint: mean survival time, dose: 400.0 mg/kg/injection, schedule: Q04DX002 (ip), vehicle: saline with Tween-80) of the same molecule?
**A.** 95 % of control

**Q.** With `Cc1c(Cl)c(C)c(Cl)c(O)c1Cl` (tested in a mixture with another compound) as the molecule, how does the T/C (endpoint: mean survival time, dose: 50.0 mg/kg/injection, schedule: Q01DX005 (ip), vehicle: saline with Tween-80) read?
**A.** 97 % of control

**Q.** What about the T/C (endpoint: mean survival time, dose: 100.0 mg/kg/injection, schedule: Q01DX005 (ip), vehicle: saline with Tween-80) of the same molecule?
**A.** 91 % of control

**Q.** Which results are given for `O=S(Nc1ccccc1)Nc1ccccc1`?
**A.** T/C [4]: 95 % of control; T/C [1]: 97 % of control; T/C [2]: 94 % of control; T/C [3]: 97 % of control

**Q.** For `CN(C)C(Cl)(Cl)Nc1ccc(Cl)cc1`, which T/C [4] is on record?
**A.** 91 % of control

**Q.** What about the T/C [5] of the same molecule?
**A.** 107 % of control

**Q.** What about the T/C [6] of the same molecule?
**A.** 113 % of control

**Q.** Which results are given for `CN1C=CC(C(C(N)=O)c2ccccc2)c2ccccc21` (configuration not stated)?
**A.** T/C [1]: 96 % of control; T/C [2]: 102 % of control; T/C [3]: 97 % of control

**Q.** For `N#CSCCOCCSC#N`, which T/C (endpoint: mean survival time, dose: 2.5 mg/kg/injection, schedule: Q04DX003 (ip), vehicle: saline with Tween-80) is on record?
**A.** 100 % of control

**Q.** What about the T/C (endpoint: mean survival time, dose: 5.0 mg/kg/injection, schedule: Q04DX003 (ip), vehicle: saline with Tween-80) of the same molecule?
**A.** 96 % of control

**Q.** For `CCc1c(Br)c(CC)c(CC)c(Br)c1CC`, which T/C (endpoint: mean survival time, dose: 100.0 mg/kg/injection, schedule: Q01DX001 (ip), vehicle: saline with Tween-80) is on record?
**A.** 105 % of control

**Q.** What about the T/C [4] of the same molecule?
**A.** 104 % of control

**Q.** What about the T/C (endpoint: mean survival time, dose: 200.0 mg/kg/injection, schedule: Q01DX001 (ip), vehicle: saline with Tween-80) of the same molecule?
**A.** 95 % of control

**Q.** And the T/C [5]?
**A.** 101 % of control

**Q.** And the T/C (endpoint: mean survival time, dose: 400.0 mg/kg/injection, schedule: Q01DX001 (ip), vehicle: saline with Tween-80)?
**A.** 103 % of control

**Q.** And the T/C [6]?
**A.** 96 % of control
